In the NIST ThermoML archive (doi:10.1016/j.jct.2018.05.022):

Assay: molar heat capacity at constant volume
Settings: Liquid, Vacuum adiabatic calorimetry

C=C(F)C(F)(F)F [2,3,3,3-tetrafluoro-1-propene]
Settings | molar heat capacity at constant volume [J/K/mol]
240.93 K, 2261 kPa | 92.26
241.09 K, 2247 kPa | 91.8
243.43 K, 4295 kPa | 92.26
243.57 K, 4255 kPa | 92.26
245.94 K, 6342 kPa | 92.37
246.04 K, 6272 kPa | 92.15
248.38 K, 8336 kPa | 92.72
248.49 K, 8272 kPa | 93.06
250.77 K, 10288 kPa | 93.29
250.92 K, 10256 kPa | 93.4
255.49 K, 1804 kPa | 95.79
255.68 K, 1821 kPa | 96.48
257.93 K, 3569 kPa | 97.51
258.1 K, 3572 kPa | 96.48
260.34 K, 5312 kPa | 97.62
260.51 K, 5317 kPa | 97.16
262.77 K, 7065 kPa | 97.51
262.92 K, 7055 kPa | 98.53
265.3 K, 8891 kPa | 98.65
265.35 K, 8807 kPa | 98.87
267.77 K, 10554 kPa | 98.87
267.88 K, 10750 kPa | 99.22
270.17 K, 12276 kPa | 99.56
271.12 K, 1842 kPa | 101.38
273.54 K, 1673 kPa | 102.07
273.64 K, 3435 kPa | 101.5
275.98 K, 3181 kPa | 102.07
276.14 K, 5012 kPa | 101.27
278.43 K, 4690 kPa | 101.95
278.65 K, 6595 kPa | 102.3
280.94 K, 6231 kPa | 102.64
281.16 K, 8178 kPa | 101.61
283.46 K, 7781 kPa | 102.75
283.66 K, 9754 kPa | 102.52
285.91 K, 9285 kPa | 102.98
286.19 K, 11346 kPa | 103.09
288.36 K, 10789 kPa | 104.01
289.3 K, 1701 kPa | 105.15
291.52 K, 1716 kPa | 105.72
291.84 K, 3037 kPa | 105.49
294.09 K, 3043 kPa | 106.4
294.38 K, 4378 kPa | 105.37
296.67 K, 4372 kPa | 106.4
296.96 K, 5740 kPa | 105.49
299.24 K, 5702 kPa | 106.97
299.7 K, 7182 kPa | 105.94
301.83 K, 7034 kPa | 106.86
302.46 K, 8635 kPa | 106.74
304.42 K, 8365 kPa | 107.54
305.12 K, 10039 kPa | 106.29
307.01 K, 9699 kPa | 108
307.78 K, 11440 kPa | 106.97
309.61 K, 11035 kPa | 108.34
310.44 K, 12837 kPa | 107.54
312.2 K, 12365 kPa | 108.8
312.59 K, 3164 kPa | 108.57
315.28 K, 1983 kPa | 109.37
315.29 K, 4301 kPa | 108.8
317.99 K, 5437 kPa | 108.91
318.03 K, 3065 kPa | 109.71
320.68 K, 6570 kPa | 110.62
320.8 K, 4151 kPa | 110.05
323.36 K, 7700 kPa | 110.28
323.57 K, 5240 kPa | 110.62
326.04 K, 8827 kPa | 110.62
326.35 K, 6332 kPa | 111.42
328.72 K, 9952 kPa | 112.22
329.14 K, 7427 kPa | 112.67
331.41 K, 11079 kPa | 112.9
331.93 K, 8524 kPa | 113.36
334.09 K, 12201 kPa | 113.24
334.72 K, 9619 kPa | 113.47
337.49 K, 10709 kPa | 113.7
340.26 K, 11796 kPa | 114.61

CCC [propane]
Settings | molar heat capacity at constant volume [J/K/mol]
236.31 K, 2219 kPa | 65.79
238.69 K, 4211 kPa | 66.23
241.04 K, 6180 kPa | 66.67
243.36 K, 8127 kPa | 66.58
245.69 K, 10074 kPa | 66.94
250.09 K, 2085 kPa | 67.6
252.35 K, 3780 kPa | 68.13
254.59 K, 5476 kPa | 68.13
256.82 K, 7162 kPa | 67.91
259.03 K, 8839 kPa | 68.48
261.25 K, 10512 kPa | 68.61
264.41 K, 2430 kPa | 69.1
266.66 K, 3950 kPa | 69.19
268.92 K, 5488 kPa | 70.24
271.21 K, 7042 kPa | 70.33
273.5 K, 8593 kPa | 70.2
275.81 K, 10155 kPa | 70.55
283.73 K, 2629 kPa | 71.61
284.6 K, 1745 kPa | 71.3
286.92 K, 3057 kPa | 71.88
287.25 K, 4679 kPa | 71.92
289.25 K, 4373 kPa | 72.23
289.61 K, 6040 kPa | 71.96
291.57 K, 5681 kPa | 72.32
291.99 K, 7411 kPa | 72.36
293.9 K, 6981 kPa | 72.98
294.35 K, 8774 kPa | 72.85
296.28 K, 8309 kPa | 73.15
296.69 K, 10124 kPa | 72.93
298.66 K, 9622 kPa | 73.2
299 K, 11450 kPa | 73.24
300.98 K, 10901 kPa | 74.35
301.28 K, 12754 kPa | 73.24
303.33 K, 12177 kPa | 74.65
305.66 K, 13418 kPa | 75.09
306.13 K, 1912 kPa | 74.7
308.58 K, 3022 kPa | 75.58
311.04 K, 4140 kPa | 75.62
313.5 K, 5260 kPa | 76.42
315.96 K, 6379 kPa | 76.55
318.43 K, 7498 kPa | 76.59
320.89 K, 8615 kPa | 77.52
323.37 K, 9735 kPa | 77.74
325.84 K, 10852 kPa | 78.18
328.28 K, 11956 kPa | 78.89
330.71 K, 13052 kPa | 79.33
332.33 K, 10672 kPa | 78.89
334.81 K, 11722 kPa | 79.81
337.26 K, 12761 kPa | 80.47
339.76 K, 13813 kPa | 80.65
